{
  "source": "patent US20070254288A1",
  "about": "“Diagnostic methods for pain sensitivity and chronicity and for tetrahydrobiopterin-related disorders” (The General Hospital Corporation, priority 2005, published 2007)",
  "key": {"[1]": {"system": "Sprague Dawley rats", "assay": "Spared nerve injury (SNI) model: mechanical (von Frey) and cold (acetone) allodynia", "format": "in vivo, rat", "protocol": "(§1) Adult male Sprague Dawley rats (150-200 g, Charles River Laboratories) were used. For the SNI model two branches of the sciatic nerve, the common peroneal and the tibial nerve, were ligated and sectioned distally. For the CCI model the sciatic nerve was constricted with three Dexon 4/0 ligatures. For the SNL model, the L5 spinal nerve was tightly ligated. All surgical procedures were under isoflurane anesthesia. For the Formalin test 50 μl of 5% formaldehyde solution were injected into a hindpaw and flinches were counted per minute up to 60 min. Paw inflammation was induced with 50 μl complete Freund's adjuvant (CFA) injected into a hindpaw. Nociceptive analysis was done blinded, and animals were fully habituated to the room and test cages. Mechanical allodynia was assessed with graded strength monofilament von Frey hairs (0.0174-20.9 gram, log scaled), cold allodynia with the acetone test and heat hyperalgesia with the Hargreaves test. Drugs (Sigma) were injected intraperitoneally or intrathecally through a spinal catheter, osmotic pumps were used for infusion. Control animals received vehicle. L4/5 DRG and spinal cord tissue was processed for QRT-PCR, Western blotting, in situ hybridization and immunofluorescence studies.\n(§2) Animals were fully habituated and experiments performed blinded. Threshold for eliciting a withdrawal reflex to graded strength monofilament von Frey hairs (0.0174-20.9 g) was measured to assess mechanical allodynia. To measure cold allodynia, a drop of acetone was applied to the plantar hindpaw, and the time the animal spent licking, shaking or lifting the paw was measured (Tegeder et al., J Neurosci 24:1637-1645 (2004)). Paw withdrawal latency to radiant heat (lamp with 8 V, 50 W) assessed heat evoked pain (Ugo Basile).\n(§3) DAHP was dissolved in 1:1 polyethylene glycol (PEG400) and 1×PBS, pH 7.4 (15 mg/ml) and administered i.p. or intrathecally (250 μg/kg/h; 5 μl/h). For all i.t. injections/infusions a spinal catheter (Recathco) was used and implanted as described (Kunz et al., Pain 110:409-418 (2004)). Infusions with an osmotic pump (Alzet). 6R-BH4 in ACSF was injected i.t. (10 μg, single 10 μl injection). N-acetyl-serotonin in 1×PBS pH 7.4 containing 3% ethanol was delivered by i.t. infusion (100 μg/kg/h; 5 μl/h). Control animals received the appropriate vehicle. All drugs from Sigma-Aldrich.\nData are means ±SEM. The number of animals per group was 9-12. Areas under the “effect versus time” curves (AUC) were calculated using the linear trapezoidal rule and compared with Student's t-test or univariate analysis of variance (ANOVA) with subsequent t-tests employing a Bonferroni alpha-correction for multiple comparisons. All other data were analyzed with univariate ANOVA or ANOVA for repeated measurements. P at 0.05 for all tests."}, "[2]": {"system": "Sprague Dawley rats", "assay": "Chronic constriction injury (CCI) model: mechanical and cold allodynia", "format": "in vivo, rat", "details": "180 mg/kg i.p.", "protocol": "as §1, with “Nociceptive analysis was done blinded, and animals were fully habituated to the room and test cages.” left out, “Drugs (Sigma) were injected intraperitoneally or intrathecally through a spinal catheter, osmotic pumps were used for infusion. Control animals received vehicle. L4/5 DRG and spinal cord tissue was processed for QRT-PCR, Western blotting, in situ hybridization and immunofluorescence studies.” left out\nas §2, with “Basile). […]” for “Basile).”"}, "[3]": {"system": "Sprague Dawley rats", "assay": "Spinal nerve ligation (SNL) model: mechanical and cold allodynia", "format": "in vivo, rat", "details": "180 mg/kg i.p.", "protocol": "as §1, with “Nociceptive analysis was done blinded, and animals were fully habituated to the room and test cages.” left out, “Drugs (Sigma) were injected intraperitoneally or intrathecally through a spinal catheter, osmotic pumps were used for infusion. Control animals received vehicle. L4/5 DRG and spinal cord tissue was processed for QRT-PCR, Western blotting, in situ hybridization and immunofluorescence studies.” left out\nas §2, with “Basile). […]” for “Basile).”"}, "[4]": {"system": "Sprague Dawley rats", "assay": "CFA-induced paw inflammation: thermal hyperalgesia (Hargreaves)", "format": "in vivo, rat", "protocol": "as §1, with “Drugs (Sigma) were injected intraperitoneally or intrathecally through a spinal catheter, osmotic pumps were used for infusion. Control animals received vehicle. L4/5 DRG and spinal cord tissue was processed for QRT-PCR, Western blotting, in situ hybridization and immunofluorescence studies.” left out\n(§4) For the Formalin test 50 μl of 5% formaldehyde solution were injected into one hindpaw and flinches were counted per minute up to 60 min. […]\nas §2\nData are means ±SEM. […] Areas under the “effect versus time” curves (AUC) were calculated using the linear trapezoidal rule and compared with Student's t-test or univariate analysis of variance (ANOVA) with subsequent t-tests employing a Bonferroni alpha-correction for multiple comparisons. All other data were analyzed with univariate ANOVA or ANOVA for repeated measurements. […]"}, "[5]": {"system": "Sprague Dawley rats", "assay": "Formalin test: flinching and cFos immunoreactive dorsal horn neurons", "format": "in vivo, rat", "protocol": "as §1, §4"}, "[6]": {"system": "BH4 synthesis (GTP cyclohydrolase activity)", "assay": "Tissue concentrations of neopterin and biopterin in L4/5 DRGs (LC/MS-MS)", "format": "in vivo, rat", "details": "single 180 mg/kg i.p. 3 hours before dissection, 180 mg/kg", "protocol": "Homogenized tissue was oxidized with iodine, and pteridines were extracted on Oasis MCX cartridges. Concentrations of total biopterin, neopterin, and the internal standard rhamnopterin were determined by LC/MS-MS. LC analysis under gradient conditions on a Nucleosil C8 column; MS-MS analyses on an API 4000 Q TRAP triple quadrupole mass spectrometer. Precursor-to-product ion transitions of m/z 236→192 for biopterin, m/z 252→192 for neopterin, m/z 265→192 for rhamnopterin were used for the MRM. Linearity from 0.1-50 ng/ml. The coefficient of correlation for all measured sequences was at least 0.99. The intra-day and inter-day variability was <10%."}, "[7]": {"assay": "Plasma and CSF concentrations of DAHP (LC/MS-MS)", "format": "in vivo, rat", "details": "after i.p. injection of 180 mg/kg; compared with IC50 range 100-300 μM", "protocol": "Concentrations of DAHP were determined LC/MS-MS on a tandem quadrupole mass spectrometer (PE Sciex API 3000; Applied Biosystems). Extraction was by acetonitrile precipitation; chromatographic separation was performed on a Nucleosil C18 Nautilus column (125×4 mm I.D., 5 μm particle size, 100 Å pore size). Mobile phase was acetonitrile:water (80:20%, v/v), and formic acid (0.1%, v/v). Flow rate was 0.2 ml/min, and injection volume was 5 μl. DAHP eluted at 4.7 min. Mass spectrometer in positive ion mode, 5200 V, 400° C., auxiliary gas flow 6 l/min. The mass transition for the MRM was m/z 127→60. Quantification with Analyst software V1.1 (Applied Biosystems). Coefficient of variation over the calibration range of 10-4000 ng/ml <5%."}, "[8]": {"system": "Sprague Dawley rats", "assay": "Nociceptive thresholds in naïve animals (von Frey, radiant heat)", "format": "in vivo, rat", "details": "naïve animals, 180 mg/kg i.p.; 180 mg/kg", "protocol": "as §2, §3"}, "[9]": {"system": "Rats", "assay": "Forced Swim Test", "format": "in vivo, rat", "details": "180 mg/kg i.p., 3 injections", "protocol": "FIGS. 8A-8D show the effects of DAHP injection. […] DAHP (250 μg/kg/h) was delivered to the lumbar spinal cord via a chronically implanted spinal catheter connected to an osmotic Alzet pump. Infusion started right after SNI surgery and continued 14 days, flow rate 5 μl/h (n=8, p<0.05). […] Effect versus time AUCs were used for statistical comparisons. […] Rats (n=7 per condition) received 3 separate injections of DAHP (180 mg/kg, i.p.), at 1 hr, 19 hrs, and 23 hrs after the first exposure to forced swimming. This commonly used treatment regimen identifies in rats agents with antidepressant or pro-depressant effects in humans (Mague et al., J Pharmacol Exp Ther 305:323-330 (2003)). Retest sessions (forced swim for 300 sec) occurred 24 hr after the first swim exposure and were videotaped from the side of the water cylinders and scored by raters unaware of the treatment condition. Rats were rated at 5 sec intervals throughout the duration of the retest session; at each 5 sec interval the predominant behavior was assigned to one of four categories: immobility, swimming, climbing, or diving. The sum of these scores are shown for each modality. For all panels, error SEM."}, "[10]": {"system": "nitric oxide production", "assay": "Nitric oxide production in L4/5 DRGs after SNI", "format": "in vivo, rat", "details": "7 d after SNI, once daily treatment"}, "[11]": {"system": "serotonin", "assay": "Serotonin concentrations in spinal cord and brain stem", "format": "in vivo, rat", "details": "data not shown"}, "[12]": {"assay": "Observation of general well-being, body weight, gait, activity", "format": "in vivo, rat", "details": "acute single or daily treatment, 180 mg/kg i.p.; 180 mg/kg"}, "[13]": {"target": "GTP cyclohydrolase", "details": "determined in vitro (Kolinsky and Gross 2004; Xie et al. 1998); read-out: IC50 range for GTP cyclohydrolase inhibition; cited from earlier work"}, "[14]": {"system": "GCH1", "assay": "LPS induction of GCH1 in cells of haplotype carriers and non-carriers", "format": "cell-based, human", "details": "cells of individuals with versus without the pain protective haplotype"}, "[15]": {"details": "repeated daily injections, measured two-three hours after injection"}},
  "note": "pIC50: −log10 of the molar value. “Also recorded” adds a separate entry of the source.",
  "data": [
    {"compound": "Nc1cc(O)nc(N)n1", "note": "[DAHP, 2,4-diamino-6-hydroxypyrimidine]", "values": [
      {"measurement": "mechanical and cold pain hypersensitivity, established", "setting": "[1]; 180 mg/kg/d i.p. starting 17 days after nerve injury", "result": "produced a significant reduction of mechanical and cold pain hypersensitivity; also recorded: decreases pain hypersensitivity"},
      {"measurement": "relative efficacy, extent of return to pre-surgery baseline values", "setting": "[1]; SNI model, versus comparators measured earlier (Decosterd et al. 2004)", "result": "exceeds that of non-sedating doses of morphine, gabapentin, amitriptyline, and carbamazepine"},
      {"measurement": "analgesia on repeated daily administration", "setting": "[1]; SNI, repeated daily administration", "result": "continues to produce analgesia without obvious loss of activity"},
      {"measurement": "dose dependence of effect on mechanical and cold allodynia", "setting": "[1]; SNI, repeated daily i.p. injections", "result": "dose dependent efficacy; also recorded: dose-dependent reductions in mechanical and cold allodynia"},
      {"measurement": "mechanical and cold allodynia", "setting": "[1]; continuous intrathecal infusion 250 μg/kg/h, 14 days from SNI surgery", "result": "reduces mechanical and cold allodynia"},
      {"measurement": "linear relationship between dose and effect (R), cold allodynia", "setting": "[1]; [15]", "result": 0.754},
      {"measurement": "linear relationship between dose and effect (R), mechanical allodynia", "setting": "[1]; [15]", "result": 0.709},
      {"measurement": "time to reversal of mechanical and cold pain hypersensitivity", "setting": "[1]; single dose 180 mg/kg i.p. four days after SNI", "result": "≤ 60", "unit": "min"},
      {"measurement": "mechanical (von Frey) and cold allodynia", "setting": "[1]; single dose 180 mg/kg i.p. four days after SNI, 180 mg/kg", "result": "significantly reduced mechanical (von Frey) and cold allodynia; also recorded: reverses mechanical and cold pain hypersensitivity"},
      {"measurement": "mechanical and cold allodynia", "setting": "[2]", "result": "analgesic effects; also recorded: dose-dependent reductions in mechanical and cold allodynia"},
      {"measurement": "mechanical and cold allodynia", "setting": "[3]", "result": "analgesic effects; also recorded: dose-dependent reductions in mechanical and cold allodynia"},
      {"measurement": "thermal hyperalgesia", "setting": "[4]; 180 mg/kg i.p., before CFA and 24 hours after CFA", "result": "significantly reduced thermal hyperalgesia; also recorded: reduce CFA-evoked heat hyperalgesia"},
      {"measurement": "thermal hyperalgesia", "setting": "[4]; single intrathecal injection of 1 mg/kg, 1 mg/kg", "result": "reduced thermal hyperalgesia"},
      {"measurement": "formalin-induced flinching behavior", "setting": "[5]; 180 mg/kg i.p. before formalin, first and second phases", "result": "significantly reduced formalin-induced flinching behavior in both phases; also recorded: significantly reduces the flinching behavior in the first and second phases"},
      {"measurement": "number of cFos immunoreactive neurons in ipsilateral dorsal horn", "setting": "[5]; 180 mg/kg i.p., two hours after formalin injection", "result": "reduced number of cFOS immunoreactive neurons; also recorded: significant reduction in the number of cFos immunoreactive neurons"},
      {"measurement": "biopterin levels in ipsilateral L4/5 DRGs", "setting": "[6]; 24 h after CFA", "result": "reduced neopterin and biopterin; also recorded: significantly reduces elevated biopterin levels"},
      {"measurement": "neopterin levels in ipsilateral L4/5 DRGs", "setting": "[6]; 24 h after CFA", "result": "reduced neopterin and biopterin; also recorded: completely prevents the inflammation-evoked increase of neopterin"},
      {"measurement": "biopterin levels in L4/5 DRGs", "setting": "[6]; 7 days after SNI", "result": "reduced neopterin and biopterin; also recorded: significantly reduces biopterin levels"},
      {"measurement": "neopterin levels in L4/5 DRGs", "setting": "[6]; 7 days after SNI", "result": "reduced neopterin and biopterin; also recorded: completely prevents the nerve injury induced increases in neopterin"},
      {"measurement": "plasma and CSF concentrations", "setting": "[7]", "result": "within the IC50 range"},
      {"measurement": "mechanical threshold and radiant heat paw withdrawal latency", "setting": "[8]", "result": "failed to modify mechanical and thermal threshold; also recorded: did not change the mechanical threshold for paw withdrawal or radiant heat evoked paw withdrawal latency"},
      {"measurement": "performance in the forced swim test", "setting": "[9]", "result": "had no effect"},
      {"measurement": "nitric oxide levels in L4/5 DRGs", "setting": "[10]", "result": "normalization of NO levels; also recorded: prevented by DAHP treatment"},
      {"measurement": "serotonin concentrations in spinal cord and brain stem", "setting": "[11]", "result": "did not, however, significantly reduce serotonin concentrations"},
      {"measurement": "general well-being, body weight, gait, activity", "setting": "[12]", "result": "No deleterious effect; also recorded: had no effect"},
      {"measurement": "pIC50", "setting": "[13]", "result": "3.52 to 4.00"}
    ]},
    {"compound": "lipopolysaccharide [LPS]", "values": [
      {"measurement": "GCH1 induction", "setting": "[14]", "result": "induced GCH1 to a lesser extent"}
    ]}
  ]
}
